The results in this text go back to US20240199546A1, “INHIBITORS OF SOLUTE CARRIER FAMILY 6A MEMBER 19 (SLC6A19) AND METHODS OF USE THEREOF” (Maze Therapeutics, Inc., priority 2022, published 2024).

The IC50 is the concentration that gives 50% inhibition.

Experiment [1] concerns the target T1, human SLC6A19 and TMEM27 (Homo sapiens, UniProt Q695T7).
T1 construct: expressed in transfected cells
T1 sequence (Q695T7 1-634): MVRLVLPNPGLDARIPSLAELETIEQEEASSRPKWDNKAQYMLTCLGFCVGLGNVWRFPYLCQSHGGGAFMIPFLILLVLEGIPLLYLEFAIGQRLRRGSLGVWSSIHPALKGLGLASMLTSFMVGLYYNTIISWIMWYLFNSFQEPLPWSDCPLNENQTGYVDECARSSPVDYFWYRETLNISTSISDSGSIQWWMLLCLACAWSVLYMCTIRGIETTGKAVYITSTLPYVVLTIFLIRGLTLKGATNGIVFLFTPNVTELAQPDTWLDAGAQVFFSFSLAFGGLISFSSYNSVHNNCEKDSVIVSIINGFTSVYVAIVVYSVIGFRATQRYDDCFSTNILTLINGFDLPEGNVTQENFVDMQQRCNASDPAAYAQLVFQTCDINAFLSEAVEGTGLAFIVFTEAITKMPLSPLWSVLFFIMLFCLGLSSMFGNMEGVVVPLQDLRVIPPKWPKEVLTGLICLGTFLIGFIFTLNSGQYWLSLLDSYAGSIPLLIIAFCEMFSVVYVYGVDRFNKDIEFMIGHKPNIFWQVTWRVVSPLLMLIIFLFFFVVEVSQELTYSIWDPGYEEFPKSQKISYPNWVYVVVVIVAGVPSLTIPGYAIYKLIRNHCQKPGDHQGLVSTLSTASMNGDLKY
T1 sequence (Q9HBJ8 15-222 partner): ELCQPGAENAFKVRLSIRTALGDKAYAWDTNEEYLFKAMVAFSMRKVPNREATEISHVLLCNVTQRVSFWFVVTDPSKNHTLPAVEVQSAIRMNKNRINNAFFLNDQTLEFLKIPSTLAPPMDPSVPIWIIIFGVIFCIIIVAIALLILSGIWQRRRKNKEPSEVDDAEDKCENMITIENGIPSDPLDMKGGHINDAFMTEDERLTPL
Put plainly: 13C6,15N-isoleucine uptake in CHO cells with doxycycline-inducible expression of human SLC6A19 and TMEM27, RapidFire mass spectrometry (Example B-2). Format: cell-based. The conditions noted are these: read-out: SLC6A19_RapidFire Uptake Assay IC50. In outline:
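CHO cells induced overnight with doxycycline to express human SLC6A19 plus TMEM27; 20 min preincubation with compound (10-point 2-fold series, duplicate) at 37 °C in HEPES buffer pH 7.2, then 20 min with 13C6,15N-isoleucine. Intracellular label quantified by RapidFire MS against 13C-leucine standard; positive control defined 100% inhibition.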

The target of experiment [2] is T1, human SLC6A19 and TMEM27. The experiment is described as follows: Radiolabelled (3H) leucine uptake in CHO cells with doxycycline-inducible expression of human SLC6A19 and TMEM27 (Example B-1). Format: cell-based. The conditions noted are these: CHO cells with doxycycline-inducible expression of human SLC6A19 and TMEM27, read-out: SLC6A19_Radioligand Uptake Assay IC50. The method in brief: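 CHO cells were induced with doxycycline for 18 h at 37 °C, washed in HBSS, then exposed to compounds for 1 h: 8-point, 3-fold dilutions in duplicate, 0.5% DMSO final. Uptake measured by scintillation counting after 2 h shaking. Activity normalized with positive control as 0% and DMSO as 100%.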

Take `CC1(C(=O)NCc2cc3cc(F)c(OCc4ccon4)cc3[nH]2)CCC1` [Compound 502, N-((5-fluoro-6-(isoxazol-3-ylmethoxy)-1H-indol-2-yl)methyl)-1-methylcyclobutane-1-carboxamide]: the IC50 at human SLC6A19 and TMEM27 [1] was determined as 1780 nM; on human SLC6A19 and TMEM27 [2], 2130 nM.

Regarding `CC1(C(=O)NCc2cc3ccc(OCCc4cscn4)cc3[nH]2)CC1` [Compound 191, 1-methyl-N-((6-(2-(thiazol-4-yl)ethoxy)-1H-indol-2-yl)methyl)cyclopropane-1-carboxamide], the IC50 at human SLC6A19 and TMEM27 [1] amounted to 1220 nM; on human SLC6A19 and TMEM27 [2], 1680 nM.

In the case of `O=C(NCc1cc2cc(Cl)c(NCc3ccon3)cc2[nH]1)N1CCC1` [Compound 407, N-((5-chloro-6-((isoxazol-3-ylmethyl)amino)-1H-indol-2-yl)methyl)azetidine-1-carboxamide], the IC50 came out at 593 nM on human SLC6A19 and TMEM27 [1]; 619 nM on human SLC6A19 and TMEM27 [2].

As for `CC(=O)NCc1cc2cc(C)c(OCc3ccon3)cc2[nH]1` [Compound 235, N-((6-(isoxazol-3-ylmethoxy)-5-methyl-1H-indol-2-yl)methyl)acetamide], the IC50 on human SLC6A19 and TMEM27 [1] stood at 521 nM; on human SLC6A19 and TMEM27 [2] it was 283 nM.

Take `CC1(C(=O)NCc2cc3ccc(OCc4cc(C(F)F)on4)cc3[nH]2)CC1` [Compound 97, N-((6-((5-(difluoromethyl)isoxazol-3-yl)methoxy)-1H-indol-2-yl)methyl)-1-methylcyclopropane-1-carboxamide]: the IC50 at human SLC6A19 and TMEM27 [1] turned out to be 909 nM; at human SLC6A19 and TMEM27 [2] it was 421 nM.

Turning to `Cn1ncc(COc2cc3[nH]c(CNC(=O)N4CCC4)cc3cc2F)n1` [Compound 409, N-((5-fluoro-6-((2-methyl-2H-1,2,3-triazol-4-yl)methoxy)-1H-indol-2-yl)methyl)azetidine-1-carboxamide], the IC50 on human SLC6A19 and TMEM27 [1] was found to be 2290 nM; at human SLC6A19 and TMEM27 [2], 1180 nM.

For `O=C(NCc1cc2cc(Cl)c(OCc3cscn3)cc2[nH]1)N1CCCC1` [Compound 82, N-((5-chloro-6-(thiazol-4-ylmethoxy)-1H-indol-2-yl)methyl)pyrrolidine-1-carboxamide], the IC50 on human SLC6A19 and TMEM27 [1] turned out to be 45 nM; at human SLC6A19 and TMEM27 [2], 149 nM.

As to `CC1(C(=O)NCc2cc3cc(Cl)c(OCc4cccnc4F)cc3[nH]2)CC1` [Compound 30, N-((5-chloro-6-((2-fluoropyridin-3-yl)methoxy)-1H-indol-2-yl)methyl)-1-methylcyclopropane-1-carboxamide], the IC50 at human SLC6A19 and TMEM27 [1] came out at 155 nM; on human SLC6A19 and TMEM27 [2], 263 nM.

For the compound `CC(C)C(=O)NCc1cc2cc(Cl)c(OCc3cscn3)cc2[nH]1` [Compound 145, N-((5-chloro-6-(thiazol-4-ylmethoxy)-1H-indol-2-yl)methyl)isobutyramide], the IC50 was found to be 43 nM on human SLC6A19 and TMEM27 [1]; 73 nM at human SLC6A19 and TMEM27 [2].

`CC1(C(=O)NCc2cc3cc(Cl)c(OCc4ncc(Cl)s4)cc3[nH]2)CC1` [Compound 323, N-((5-chloro-6-((5-chlorothiazol-2-yl)methoxy)-1H-indol-2-yl)methyl)-1-methylcyclopropane-1-carboxamide]: the IC50 amounted to 531 nM on human SLC6A19 and TMEM27 [1]; 1810 nM on human SLC6A19 and TMEM27 [2].

Regarding `CC(C)C(=O)NCc1cc2cc(Cl)c(OCc3ccon3)cc2[nH]1` [Compound 132, N-((5-chloro-6-(isoxazol-3-ylmethoxy)-1H-indol-2-yl)methyl)isobutyramide], the IC50 on human SLC6A19 and TMEM27 [1] was determined as 103 nM; at human SLC6A19 and TMEM27 [2], 136 nM.

As to `CC1(C(=O)NCc2cc3cc(Cl)c(OCc4ccon4)c(Cl)c3[nH]2)CC1` [Compound 346, N-((5,7-dichloro-6-(isoxazol-3-ylmethoxy)-1H-indol-2-yl)methyl)-1-methylcyclopropane-1-carboxamide], the IC50 on human SLC6A19 and TMEM27 [1] is above 50000 nM; at human SLC6A19 and TMEM27 [2], above 9540 nM.

As for `CC1(C(=O)NCc2cc3cc(Cl)c(OCc4ccns4)cc3[nH]2)CC1` [Compound 322, N-((5-chloro-6-(isothiazol-5-ylmethoxy)-1H-indol-2-yl)methyl)-1-methylcyclopropane-1-carboxamide], the IC50 on human SLC6A19 and TMEM27 [1] stood at 138 nM; at human SLC6A19 and TMEM27 [2], 275 nM.

Turning to `COC(=O)NCc1cc2cc(Cl)c(OCc3cscn3)cc2[nH]1` [Compound 624, methyl ((5-chloro-6-(thiazol-4-ylmethoxy)-1H-indol-2-yl)methyl)carbamate], the IC50 at human SLC6A19 and TMEM27 [1] worked out at 30.9 nM; at human SLC6A19 and TMEM27 [2], 104 nM.

For the compound `O=C(NCc1cc2cc(Cl)c(OCc3ccon3)cc2[nH]1)C1(F)CC1` [Compound 232, N-((5-chloro-6-(isoxazol-3-ylmethoxy)-1H-indol-2-yl)methyl)-1-fluorocyclopropane-1-carboxamide], the IC50 is 41.2 nM on human SLC6A19 and TMEM27 [1]; 101 nM on human SLC6A19 and TMEM27 [2].

For `CC1(C(=O)NCc2cc3cc(Cl)c(OCc4cc5ccccn5n4)cc3[nH]2)CC1` [Compound 392, N-((5-chloro-6-(pyrazolo[1,5-a]pyridin-2-ylmethoxy)-1H-indol-2-yl)methyl)-1-methylcyclopropane-1-carboxamide], the IC50 at human SLC6A19 and TMEM27 [1] is 1620 nM; on human SLC6A19 and TMEM27 [2] it was 2830 nM.

As to `O=C(NCc1cc2cc(Cl)c(OCc3ccon3)cc2[nH]1)C1CC1` [Compound 131, N-((5-chloro-6-(isoxazol-3-ylmethoxy)-1H-indol-2-yl)methyl)cyclopropanecarboxamide], the IC50 on human SLC6A19 and TMEM27 [1] was 50 nM; at human SLC6A19 and TMEM27 [2] it was 74 nM.

Consider `Cc1nc(COc2cc3[nH]c(CNC(=O)C(C)C)cc3cc2F)co1` [Compound 551, N-((5-fluoro-6-((2-methyloxazol-4-yl)methoxy)-1H-indol-2-yl)methyl)isobutyramide], for which the IC50 came out at 1760 nM at human SLC6A19 and TMEM27 [1]; 954 nM at human SLC6A19 and TMEM27 [2].

For the compound `Cc1cnc(COc2cc3[nH]c(CNC(=O)C4(C)CC4)cc3cc2Cl)s1` [Compound 63, N-((5-chloro-6-((5-methylthiazol-2-yl)methoxy)-1H-indol-2-yl)methyl)-1-methylcyclopropane-1-carboxamide], the IC50 at human SLC6A19 and TMEM27 [1] was found to be 56 nM; on human SLC6A19 and TMEM27 [2], 299 nM.

As to `Cc1cncc(COc2cc3[nH]c(CNC(=O)C4(C)CC4)cc3cc2Cl)c1` [Compound 23, N-((5-chloro-6-((5-methylpyridin-3-yl)methoxy)-1H-indol-2-yl)methyl)-1-methylcyclopropane-1-carboxamide], the IC50 on human SLC6A19 and TMEM27 [1] amounted to 502 nM; at human SLC6A19 and TMEM27 [2] it was 1430 nM.

With `O=C(NCc1cc2cc(F)c(CCc3ccon3)cc2[nH]1)N1CCCC1` [Compound 603, N-((5-fluoro-6-(2-(isoxazol-3-yl)ethyl)-1H-indol-2-yl)methyl)pyrrolidine-1-carboxamide], the IC50 at human SLC6A19 and TMEM27 [1] was found to be 263 nM; at human SLC6A19 and TMEM27 [2] it was 345 nM.

Consider `Cc1cc(COc2cc3[nH]c(CNC(=O)C4(C)CC4)cc3cc2C)no1` [Compound 14, 1-methyl-N-((5-methyl-6-((5-methylisoxazol-3-yl)methoxy)-1H-indol-2-yl)methyl)cyclopropane-1-carboxamide], for which the IC50 came to 120 nM at human SLC6A19 and TMEM27 [1]; 111 nM at human SLC6A19 and TMEM27 [2].

On to `O=C(NCc1cc2cc(Cl)c(OCc3cscn3)cc2[nH]1)C1CC1` [Compound 147, N-((5-chloro-6-(thiazol-4-ylmethoxy)-1H-indol-2-yl)methyl)cyclopropanecarboxamide], for which the IC50 on human SLC6A19 and TMEM27 [1] was 33 nM; on human SLC6A19 and TMEM27 [2], 67 nM.

`O=C(NCc1cc2cc(F)c(OCc3cscn3)cc2[nH]1)N1CCCC1` [Compound 114, N-((5-fluoro-6-(thiazol-4-ylmethoxy)-1H-indol-2-yl)methyl)pyrrolidine-1-carboxamide]: the IC50 came to 158 nM at human SLC6A19 and TMEM27 [1]; 184 nM on human SLC6A19 and TMEM27 [2].
